Counter-ions that a name gives are not always drawn. Like-named read-outs stand apart in the source and are kept apart here.
Key:
[1] = Cytotoxicity test (Cell Counting Kit-8), HEK293; assay type: cell-based, human; details: human, 293 (HEK293) cells, read-out: CC50 (50% cytotoxicity concentration) (converted)
Description: (§1) First, as test compound solutions, test compounds were prepared in 1% dimethylsulfoxide-containing MEMs so that a final concentration was 1000, 100, 10, 1, 0.1, 0.01, or 0.001 μM.
(§2) Cell fluids in which MDCK cells, A549 cells, and HEK293 cells were prepared at concentrations of 6.25×10^5 cells/mL, 2.5×10^6 cells/mL, and 1.25×10^5 cells/mL in minimum essential mediums (MEMs) were added to a 96-well plate at 0.1 ml/well and the cells were seeded. The cells in the 96-well plate were cultured in a carbon dioxide incubator at 37° C. and washed with MEM the day after the seeding date. In the washed cells in the 96-well plate, 0.1 mL of each test compound solution was added to three wells for each concentration and the cells in the 96-well plate were then cultured in a carbon dioxide incubator at 37° C. for 48 hours. After the culture, a Cell Counting Kit-8 solution (commercially available from Dojindo Molecular Technologies, Inc.) was added to each well at 10 μL and culture was additionally performed at 37° C. for several hours. After the culture, an absorbance at 450 nm of a solution of each well in the 96-well plate was measured using a microplate reader. An absorbance value when a solvent (1% dimethylsulfoxide-containing MEM) was added in place of the test compound was set to 100% at which the whole cells survived. A final concentration value of the test compound when an absorbance was 50% was calculated as a 50% cytotoxicity concentration (CC50 value).

[2] = Cytotoxicity test (Cell Counting Kit-8), A549; assay type: cell-based; details: human, A549 cells, read-out: CC50 (50% cytotoxicity concentration) (converted)
[3] = Cytotoxicity test (Cell Counting Kit-8), MDCK; assay type: cell-based, canine; details: dog, MDCK cells, read-out: CC50 (50% cytotoxicity concentration) (converted)
Description: as §1
as §2, with “A final concentration value of the test compound when an absorbance was 50% was calculated as a 50% cytotoxicity concentration (CC50 value).” left out

[4] = target: T1, adenine nucleotide transporter (ANT) (Homo sapiens, UniProt P05141); details: cited from earlier work
T1 sequence (P05141 1-298): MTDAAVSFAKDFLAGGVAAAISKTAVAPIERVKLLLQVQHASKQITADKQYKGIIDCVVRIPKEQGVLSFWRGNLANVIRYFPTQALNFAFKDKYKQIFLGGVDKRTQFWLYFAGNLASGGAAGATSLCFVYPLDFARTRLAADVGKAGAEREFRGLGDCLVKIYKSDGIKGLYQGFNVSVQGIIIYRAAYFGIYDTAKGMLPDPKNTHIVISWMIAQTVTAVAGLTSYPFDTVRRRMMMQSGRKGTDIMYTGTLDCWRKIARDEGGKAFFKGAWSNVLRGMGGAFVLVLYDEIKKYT

[5] = system: HEK293 cells; assay: Cytotoxicity test (Cell Counting Kit-8), HEK293; assay type: cell-based, human; details: 293 (HEK293) cells, 48 hours
Description: as §1, §2

[6] = system: influenza virus; assay type: cell-based
[7] = system: HEK293 cells or A549 cells; assay: Cell viability with inhibitors (CellTiter-Glo, Example 2), cell line not specified; assay type: cell-based, human; details: for cell viability: 48 hours
Description: Specifically, HEK293 cells or A549 cells were infected with an influenza virus with an MOI of 0.001. Cells 1 hour after the infection were washed and then cultured in a culture solution containing inhibitors, a DMSO solution (final concentration: 1 volume %) was used as a control instead of the inhibitors. […] In addition, a cell viability (%) was calculated using a CellTiter-Glo assay system (commercially available from Promega Corporation) according to the appended instructions. The number of cells cultured in a medium containing the inhibitors with respect to the number of living cells in cells cultured in a medium containing the control (the DMSO solution) was calculated as the cell viability (%).

[8] = system: A549 cells; assay: Cell viability with inhibitors (CellTiter-Glo, Example 2), A549; details: 0.2 μM
Description: (§3) In addition, a cell viability (%) was calculated using a CellTiter-Glo assay system (commercially available from Promega Corporation) according to the appended instructions. The number of cells cultured in a medium containing the inhibitors with respect to the number of living cells in cells cultured in a medium containing the control (the DMSO solution) was calculated as the cell viability (%).

[9] = system: A549 cells
Description: as §3

Question: Which CC50 at 48 h [1] does the source give for `Cl.Cl.Fc1cc(-c2cccc3ncc(-c4cnn(C5CCNCC5)c4)nc23)cc(F)c1CN1CCOCC1` [Compound J21, 4-[[2,6-difluoro-4-[3-(1-piperidin-4-ylpyrazol-4-yl)quinoxalin-5-yl]phenyl]methyl]morpholine; dihydrochloride] here?
Answer: 38.9 µM

Question: With `O=C(Nc1c[nH]nc1-c1nc2cc(CN3CCOCC3)ccc2[nH]1)NC1CC1` [Compound J7, 1-cyclopropyl-3-(3-(5-(morpholinomethyl)-1H-benzo[d]imidazol-2-yl)-1H-pyrazol-4-yl) urea] as the molecule, how does the CC50 at 48 h [2] read?
Answer: > 316 µM

Question: Which CC50 at 48 h [3] does the source give for `CN1C/C=C/CCOc2cccc(c2)-c2ccnc(n2)Nc2cccc(c2)C1` [Compound J23, 20-oxa-5,7,14,27-tetraazatetracyclo[19.3.1.12,6.18, 12]heptacosa-1(25),2,4,6(27),8,10,12(26),16,21,23-decane,14-methyl-] here?
Answer: 7.94 µM

Question: What about the CC50 at 48 h [2] of the same molecule?
Answer: 35.5 µM

Question: And the CC50 at 48 h ([1]; HEK293 cells)?
Answer: 52.5 µM

Question: Which Ki [4] does the source give for `C=C1[C@@H]2CC[C@H]3[C@]4(C)C[C@H](O[C@@H]5O[C@H](CO)[C@@H](OS(=O)(=O)O)[C@H](OS(=O)(=O)O)[C@H]5OC(=O)CC(C)C)CC(C(=O)O)(C(=O)O)[C@H]4CC[C@]3(C2)[C@H]1O` [Carboxyatractyloside] here?
Answer: < 0.01 µM

Question: Which CC50 at 48 h [2] does the source give for `N#C/C(=C\c1ccc(O)c(O)c1)C(=O)NCc1ccccc1` [Compound J4, (E)-N-benzyl-2-cyano-3-(3,4-dihydroxyphenyl)acrylamide] here?
Answer: 2690 µM

Question: For `CC(C)N(CCC(=O)c1ccc2ccccc2c1)Cc1ccccc1` [Compound J15, 1-propanone, 3-[(1-methylethyl)(phenylmethyl)amino]-1-(2-naphthalenyl)-, hydrochloride (1:1)], which CC50 at 48 h ([1]; HEK293 cells) is on record?
Answer: 47.9 µM

Question: What does the source list for `O=C(Nc1nc2cccc(-c3ccc(CN4CCS(=O)(=O)CC4)cc3)n2n1)C1CC1` [Compound J19, N-[5-[4-[(1,1-dioxido-4-thiomorpholinyl)methyl]phenyl][1,2,4]triazolo[1,5-a]pyridin-2-yl]cyclopropanccarboxamidc]?
Answer: CC50 at 48 h [3]: > 316 µM; CC50 at 48 h [2]: > 316 µM; CC50 at 48 h ([1]; HEK293 cells): > 316 µM

Question: Which “CC50 (50% cytotoxicity concentration)” value [5] does the source give for `CN1CCN(c2cccc(Nc3nc4c(-c5ccc(S(C)(=O)=O)cc5)cccn4n3)c2)CC1` [Compound J11] here?
Answer: >5.5 log10, nM

Question: With `CC(=O)C(C)=NO` [2,3-Butanedione 2-Monoxime] as the molecule, how does the anti-influenza virus effect [6] read?
Answer: had an anti-influenza virus effect

Question: What about the cell viability ([7]; 30 mM) of the same molecule?
Answer: significantly reduced

Question: For `O=c1c(-c2ccc(O)cc2)coc2cc(O)cc(O)c12` [Genistein], which anti-influenza virus effect [6] is on record?
Answer: had an anti-influenza virus effect

Question: Which CC50 at 48 h ([1]; HEK293 cells) does the source give for `COc1cc2ncnc(Nc3ccc(O)cc3)c2cc1OC` [Compound J20, 4-[(6,7-dimethoxy-4-quinazolinyl)amino]-phenol] here?
Answer: > 316 µM

Question: For `O=C1/C(=C/c2ccc(O)c(Br)c2)CCC/C1=C\c1ccc(O)c(Br)c1` [Histone acetyltransferase inhibitor II], which anti-influenza virus effect [6] is on record?
Answer: had an anti-influenza virus effect

Question: With `Fc1cc(-c2cccc3ncc(-c4cnn(C5CCNCC5)c4)nc23)cc(F)c1CN1CCOCC1` [Compound J13, 8-(3,5-difluoro-4-(morpholinomethyl)phenyl)-2-(1-(piperidin-4-yl)-1H-pyrazol-4-yl)qui noxaline] as the molecule, how does the CC50 at 48 h ([1]; HEK293 cells) read?
Answer: 20.9 µM

Question: With `CC(C)C[C@H](NC(=O)[C@H](Cc1ccccc1)NC(=O)c1cnccn1)B(O)O` [Bortezomib] as the molecule, how does the “virus titer reduced by a common logarithmic value” ([6]; 0.2 μM, A549 cells, MOI 0.001, 48 hours) read?
Answer: 4 common logarithmic value

Question: What about the cytotoxicity [8] of the same molecule?
Answer: without showing severe cytotoxicity

Question: For `CCC[C@H](NC(=O)/C(C#N)=C/c1cccc(Br)n1)c1ccccc1` [Compound J25, (2E)-3-(6-bromo-2-pyridinyl)-2-cyano-N-[1S-phenylbutyl]-2-propenamide], which anti-influenza virus effect [6] is on record?
Answer: had an anti-influenza virus effect

Question: And the cell viability ([7]; 50 μM)?
Answer: significantly reduced

Question: And the “CC50 (50% cytotoxicity concentration)” value [5]?
Answer: 3.69 log10, nM

Question: With `N#CCNC(=O)c1ccc(-c2ccnc(Nc3ccc(N4CCOCC4)cc3)n2)cc1` [Compound J8, N-(cyanomethyl)-4-(2-(4-morpholinophenylamino)pyrimidin-4-yl)benzamide] as the molecule, how does the CC50 at 48 h ([1]; HEK293 cells) read?
Answer: > 316 µM

Question: What does the source list for `COc1cc2c(c(OC)c1OC)-c1ccc(OC)c(=O)cc1[C@@H](NC(C)=O)CC2` [Colchicine]?
Answer: virus titer reduced by a common logarithmic value [6]: 2 common logarithmic value; cytotoxicity [9]: without showing severe cytotoxicity

Question: For `Fc1cc(F)c2c(c1)C1C=CCC1C(c1cccnc1)N2` (centres unmarked) [Golgicide A], which anti-influenza virus effect [6] is on record?
Answer: had an anti-influenza virus effect

Question: What about the “effect on virus titer” value [6] of the same molecule?
Answer: significantly reduced a virus titer

Question: And the “toxicity to host cells” value ([7]; summary of Example 2)?
Answer: relatively low toxicity to host cells

— patent US20170290821A1 (priority 2014, published 2017)
